One may read the IC50 as the point on the concentration scale where inhibition reaches its midpoint.

Some results are limits rather than exact numbers.

Data set [1] concerns normal mouse fibroblast Balb/3T3 cells. Briefly: In vitro cytotoxicity (SRB), Balb/3T3. Format: cell-based. Conditions: mean ± SD; for IC50 Balb/3T3: 72 h exposure. As to the method:
Biphenotypic B myelomonocytic leukemia MV4-11, human lung carcinoma A549, human breast carcinoma MCF-7, and normal mouse fibroblast BALB/3T3 cells were obtained from American Type Culture Collection (Rockville, Maryland, USA). All the cell lines are being maintained at the Institute of Immunology and Experimental Therapy, Wroclaw, Poland. MV4-11 cells were cultured in RPMI 1640 medium (Gibco, UK) with 2 mM L-glutamine adjusted to contain 1.0 mM sodium pyruvate, and 10% fetal bovine serum (FBS) (all from Sigma-Aldrich, Germany). A549 cells were cultured in RPMI 1640+ Opti-MEM (1:1) (both from Gibco, UK), MCF-7 cells in Eagle medium (IIET, Wroclaw, Poland), BALB/3T3 in Dulbecco medium (IIET, Poland) supplemented with 2 mM L-glutamine and 1.0 mM sodium pyruvate, 10% fetal bovine serum (all from Sigma-Aldrich, Germany). The MCF-7 cell culture was supplemented with 0.8 mg/l of insulin (Sigma-Aldrich, Germany). All culture media were supplemented with 100 units/ml penicillin, and 100 µg/ml streptomycin (both from Polfa Tarchomin S.A., Poland). All cell lines were grown at 37 °C with 5% CO2 humidified atmosphere (Łączkowski et al. [2014], [2016a]). Prior to usage, the compounds were dissolved in DMSO and culture medium (1: 9) to the concentration of 1 mg/ml, and subsequently diluted in culture medium to reach the required concentrations (0.1, 1, 10, and 100 µg/ml) (Łączkowski et al. [2014], [2016a]). Twenty-four hours prior to the addition of the tested compounds, the cells counted using Burker hemocytometer were plated in 96-well plates (Sarstedt, Germany) at a density of 1 × 10^4 cells per well. The assay was performed after 72 h of exposure to varying concentrations of the tested agents. The in vitro cytotoxic effect of all agents was examined using the SRB assay for adherent cells (A549, MCF-7, and BALB/3T3) or MTT assay for leukemia cells (MV4-11) as described previously. […] Each compound in each concentration was tested in triplicate in a single experiment, which was repeated 3–7 times (Rubinstein et al. [1990]; Bramson et al. [1995]). Cells were attached to the bottom of plastic wells by fixing them with cold 50% TCA (trichloroacetic acid, POCH, Gliwice, Poland) on top of the culture medium in each well. The plates were incubated at 4 °C for 1 h and then washed five times with tap water. The cellular material fixed with TCA was stained with 0.1% sulforhodamine B (SRB, Sigma-Aldrich, Germany) and dissolved in 1% acetic acid (POCH, Gliwice, Poland) for 30 min. Unbound dye was removed by rinsing (4×) in 1% acetic acid. The protein-bound dye was extracted with 10 mM unbuffered Tris base (Sigma-Aldrich, Germany) for determination of the optical density (λ = 540 nm) in a computer-interfaced, 96-well Synergy H4 (BioTek Instruments USA) photometer microtiter plate reader (Sidoryk et al. [2012]).

In a further data set the test system is mouse L929 fibroblast. Briefly: Cell viability assay (MTT), L929. Format: cell-based. The conditions noted are these: 24 h; for CC30 L929: concentration for 30% proliferation inhibition. On the procedure: (§1) The epithelial cell line VERO (ATCC-Catalog No. CCL-81^TM), derived from the kidney of the African green monkey, Cercopithecus aethiops and fibroblast cell line L-929 (ATCC-Catalog No. CCL-1^TM), derived from Mus musculus (http://www.atcc.org) were grown in Iscoves’s Modified Dulbecco’s Medium (IMDM) supplemented with 10% (v/v) fetal bovine serum (FBS), plus 2 mM L-glutamine, 100 U/ml penicillin, 100.00 µg/ml streptomycin, 5 × 10^−5 M 2-mercaptoethanol and maintained at 37 °C in a 10% CO2 atmosphere. Subcultures were performed via enzymatic cell dissociation in 0.25% trypsin. After dissociation, the cells were placed in culture medium at 4 °C with 10% FBS to inhibit the action of trypsin. The isolated cells were centrifuged for 10 min at 1000×g at 4 °C, and the cells were grown in new bottles. This procedure was repeated when cells reached a confluence of ~90%. All commercial reactants and solvents were purchased from either Sigma-Aldrich Laborchemikalien GmbH (Dzitko et al. [2014]).
(§2) Suspensions of the compounds 4a–l were freshly prepared (5 mg/ml DMSO) before the cells were exposed, and diluted to appropriate concentrations; 0.9, 1.8, 3.9, 7.8, 15.6, 31.2, 62.5, and 125.00 μg/ml with the culture medium. Cells treated with 2.5% DMSO-solvent served as a control in each experiment.
(§3) The effects of tested compounds on the viability of mouse fibroblasts L929 and […] VERO cells were evaluated using the MTT assay. The MTT assay was used according to international standards: ISO 10993-5:2009 (Tests for in vitro cytotoxicity; http://www.iso.org/iso/catalogue_detail.htm? csnumber = 36406). L929 and VERO cells were plated into 96-well plates at a density of 1.0 × 10^4/100 μl/well in culture medium and allowed to attach for 24 h before treatment. Afterwards, culture medium in the plates was replaced by 100 μl compounds suspension at concentration of 0–125 μg/ml and the cells were exposed for 24 h. Then 1 mg/ml MTT (50 μl/well) was added to each well and incubated at 37 °C, 10 % CO2 for 2 h. Mitochondrial dehydrogenases of viable cells reduce the yellowish water-soluble MTT to water-insoluble formazan crystals, which were solubilized with dimethyl sulfoxide (DMSO). The cell culture medium was aspirated cautiously, after which 150 μl DMSO was added to each well and mixed thoroughly. Optical density (OD) was read on the ELISA reader (Multiskan EX, Labsystems; http://www.mtxlsi.com/multiskan_EX.htm) at 550 nm. The results were expressed as percentage viability compared with the treated 2.5% DMSO controls. All experiments were performed in triplicate.

In a further data set the test system is VERO cells. Nature of the data set: Cell viability assay (MTT), VERO. It counts as cell-based, Cercopithecus aethiops. The conditions noted are these: 24 h; for CC30 VERO: concentration for 30% proliferation inhibition. On the procedure: as §1, §2, §3

For `C/C(=N\Nc1nc(-c2ccc(NS(C)(=O)=O)cc2)cs1)c1ccc(Nc2nc(N)nc(N)n2)cc1` [Compound 4j, (E)-N-(4-(2-(2-(1-(4-(4,6-diamino-1,3,5-triazin-2-yloamino)phenyl)ethylidene)hydrazinyl)thiazol-4-yl)phenyl)-methanesulfonamide], in data set [1], the “IC50 Balb/3T3” value was more than 100 µg/mL. The “Viability L929” value with mouse L929 fibroblast (0.9 µg/ml) came to 98.90%; in the data set on mouse L929 fibroblast (1.8 µg/ml), 106.36%; in the data set with mouse L929 fibroblast (3.9 µg/ml) it was 104.20%; in the data set with mouse L929 fibroblast (7.8 µg/ml), 101.86%; in the data set with mouse L929 fibroblast (15.6 µg/ml), 100.71%; in the data set on mouse L929 fibroblast (31.2 µg/ml), 104.07%. The “Viability L929” value is 102.92% in the data set with mouse L929 fibroblast (62.5 µg/ml) and 106.67% in the data set with mouse L929 fibroblast (125.0 µg/ml). The “CC30 L929” value in the data set on mouse L929 fibroblast was more than 125.0 µg/mL. Further, the “Viability VERO” value in the data set on VERO cells (0.9 µg/ml) worked out at 79.82%; with VERO cells (1.8 µg/ml), 93.81%; in the data set with VERO cells (3.9 µg/ml), 93.62%; with VERO cells (7.8 µg/ml), 89.25%; in the data set on VERO cells (15.6 µg/ml), 90.98%; in the data set with VERO cells (31.2 µg/ml), 96.22%. The figures for the “Viability VERO” value with VERO cells (62.5 µg/ml) and with VERO cells (125.0 µg/ml) were 97.76% and 89.44%, respectively. In the data set with VERO cells, the “CC30 VERO” value is more than 125.0 µg/mL.

As for `C/C(=N\Nc1nc(-c2ccccc2)cs1)c1ccc(Nc2nc(N)nc(N)n2)cc1` [Compound 4k, (E)-N^2-(4-(1-(2-(4-phenyl-1,3-thiazol-2-yl)hydrazinylidene)ethyl)phenyl)-1,3,5-triazine-2,4,6-triamine], the IC50 in data set [1] (Mus musculus, BALB/3T3, 72 h exposure) was more than 100 µg/mL. Moreover, the “CC30 L929” value in the data set with mouse L929 fibroblast was more than 125.0 µg/mL. The “CC30 VERO” value with VERO cells was more than 125.0 µg/mL.

`C/C(=N\Nc1nc(-c2ccc3[nH]c(=O)oc3c2)cs1)c1ccc(Nc2nc(N)nc(N)n2)cc1` [Compound 4l, (E)-6-(2-(2-(1-(4-(4,6-diamino-1,3,5-triazin-2-yloamino)phenyl)ethylidene)hydrazinyl)thiazol-4-yl)-benzo[d]oxazol-2(3H)-on]: the “IC50 Balb/3T3” value in data set [1] is more than 100 µg/mL. The “Viability L929” value in the data set on mouse L929 fibroblast (0.9 µg/ml) came out at 103.88%; in the data set on mouse L929 fibroblast (1.8 µg/ml), 109.00%; in the data set on mouse L929 fibroblast (3.9 µg/ml), 103.03%; with mouse L929 fibroblast (7.8 µg/ml), 101.74%; with mouse L929 fibroblast (15.6 µg/ml), 105.02%; in the data set on mouse L929 fibroblast (31.2 µg/ml), 105.52%. Further, the “Viability L929” value in the data set on mouse L929 fibroblast (62.5 µg/ml) was 108.10%. The “CC30 L929” value with mouse L929 fibroblast is more than 62.5 µg/mL. Also, the “Viability VERO” value in the data set with VERO cells (0.9 µg/ml) amounted to 97.13%; in the data set on VERO cells (1.8 µg/ml) it was 87.85%; in the data set with VERO cells (3.9 µg/ml), 95.16%; with VERO cells (7.8 µg/ml), 91.03%; in the data set with VERO cells (15.6 µg/ml) it was 96.08%; with VERO cells (31.2 µg/ml), 95.40%. Besides, the “Viability VERO” value with VERO cells (62.5 µg/ml) is on record as 97.33%. Besides, in the data set with VERO cells, the “CC30 VERO” value was more than 62.5 µg/mL.

Values taken from article PMC5854716, “Synthesis, molecular docking, ctDNA interaction, DFT calculation and evaluation of antiproliferative and anti-Toxoplasma gondii activities of 2,4-diaminotriazine-thiazole derivatives” (Medicinal Chemistry Research, 2018).
